# Measured values reported in ChEMBL document CHEMBL1955803, “Preclinical in vivo evaluation of efficacy, pharmacokinetics, and pharmacodynamics of a novel MEK1/2 kinase inhibitor RO5068760 in multiple tumor models” (Mol Cancer Ther, 2010).
# Activity calls are given as the source filed them. The calls are words filed in the database; no cut-off is given here.
# Key:
# Mus musculus [1] = test: Average drug concentration in human MIAPaCa2 cells expressing K-Ras G12C mutant xenografted nude mouse plasma at 200 mg/kg, po qd; format: ADME, organism-based, MIA PaCa-2; parameters: dose 200 mg/kg, route oral; conditions: in vivo
# Mus musculus [2] = test: Average drug concentration in human LOX cells expressing B-Raf V600E mutant xenografted nude mouse plasma at 12.5 mg/kg, po bid; format: ADME, organism-based; parameters: dose 12.5 mg/kg, route oral; conditions: in vivo
# [3] = Drug level in human HT-29 cells expressing B-Raf V600E mutant xenografted nude mouse tumor at 100 mg/kg, po after 12 hrs; format: ADME, organism-based, Neoplasm; parameters: dose 100 mg/kg, route oral; conditions: read-out: Drug uptake
# Mus musculus [4] = test: Average drug concentration in human HT-29 cells expressing B-Raf V600E mutant xenografted nude mouse plasma at 100 mg/kg, po bid; format: ADME, organism-based; parameters: dose 100 mg/kg, route oral; conditions: in vivo
# [5] = Cmax in human MIAPaCa2 cells expressing K-Ras G12C mutant xenografted nude mouse at 100 mg/kg, po bid; format: ADME, organism-based, MIA PaCa-2; parameters: dose 100 mg/kg, route oral; conditions: in vivo
# Mus musculus [6] = test: Average drug concentration in human H460 cells expressing K-Ras Q61H mutant xenografted nude mouse plasma at 25 mg/kg, po bid; format: ADME, organism-based; parameters: dose 25 mg/kg, route oral; conditions: in vivo
# LOX = test: Induction of apoptosis in human LOX cells; format: functional, cell-based
# HT-29 [7] = test: Cell cycle arrest in human HT-29 cells assessed as accumulation at G1 phase; format: functional, cell-based
# [8] = Cmax in human MIAPaCa2 cells expressing K-Ras G12C mutant xenografted nude mouse at 25 mg/kg, po bid; format: ADME, organism-based, MIA PaCa-2; parameters: dose 25 mg/kg, route oral; conditions: in vivo
# [9] = Drug level in human HT-29 cells expressing B-Raf V600E mutant xenografted nude mouse tumor at 100 mg/kg, po after 2 hrs; format: ADME, organism-based, Neoplasm; parameters: dose 100 mg/kg, route oral; conditions: read-out: Drug uptake
# [10] = AUC (0 to 12 hrs) in human H460 cells expressing K-Ras Q61H mutant xenografted nude mouse at 50 mg/kg, po bid; format: ADME, organism-based; parameters: time < 12 hr, dose 50 mg/kg, route oral; conditions: in vivo
# Mus musculus [11] = test: Average drug concentration in human MIAPaCa2 cells expressing K-Ras G12C mutant xenografted nude mouse plasma at 25 mg/kg, po bid; format: ADME, organism-based, MIA PaCa-2; parameters: dose 25 mg/kg, route oral; conditions: in vivo
# [12] = target: Dual specificity mitogen-activated protein kinase kinase; MEK1/2 (Homo sapiens) (UniProt P36507+Q02750); conditions: LOX, 2 to 10 uM
# Sequence of Dual specificity mitogen-activated protein kinase kinase; MEK1/2 (Homo sapiens) (P36507 whole entry, looked up): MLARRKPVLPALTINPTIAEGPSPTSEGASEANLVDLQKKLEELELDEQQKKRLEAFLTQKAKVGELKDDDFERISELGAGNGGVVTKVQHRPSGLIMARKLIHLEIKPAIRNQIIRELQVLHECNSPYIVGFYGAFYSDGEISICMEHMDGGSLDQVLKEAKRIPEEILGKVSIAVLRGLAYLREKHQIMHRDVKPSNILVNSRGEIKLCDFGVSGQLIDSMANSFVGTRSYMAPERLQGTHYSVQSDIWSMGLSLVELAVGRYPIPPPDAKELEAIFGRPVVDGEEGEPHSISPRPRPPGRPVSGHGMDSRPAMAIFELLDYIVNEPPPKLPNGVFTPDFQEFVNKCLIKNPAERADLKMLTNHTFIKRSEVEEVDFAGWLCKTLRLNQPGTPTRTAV
# Sequence of Dual specificity mitogen-activated protein kinase kinase; MEK1/2 (Homo sapiens) (Q02750 whole entry, looked up): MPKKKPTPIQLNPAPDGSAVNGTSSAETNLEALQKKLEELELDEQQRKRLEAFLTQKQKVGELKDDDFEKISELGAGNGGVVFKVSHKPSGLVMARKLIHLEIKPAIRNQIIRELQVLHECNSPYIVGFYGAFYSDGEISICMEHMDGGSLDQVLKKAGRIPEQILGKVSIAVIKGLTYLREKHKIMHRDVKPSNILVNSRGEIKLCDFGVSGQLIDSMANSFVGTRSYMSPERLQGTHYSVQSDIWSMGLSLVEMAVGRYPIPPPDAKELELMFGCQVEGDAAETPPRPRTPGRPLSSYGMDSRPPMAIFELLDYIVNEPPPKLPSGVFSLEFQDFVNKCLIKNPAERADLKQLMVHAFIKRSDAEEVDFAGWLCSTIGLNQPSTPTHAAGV
# Description: Inhibition of MEK1/2 in human LOX cells assessed as down regulation of CDK4/cyclin D1 expression at 2 to 10 uM by Western blot analysis
# [13] = Drug level in human HT-29 cells expressing B-Raf V600E mutant xenografted nude mouse tumor at 50 mg/kg, po after 12 hrs; format: ADME, organism-based, Neoplasm; parameters: dose 50 mg/kg, route oral; conditions: read-out: Drug uptake
# [14] = target: T1, Dual specificity mitogen-activated protein kinase kinase 1 (Homo sapiens, UniProt Q02750); test: Inhibition of MEK1
# T1 sequence (Q02750 whole entry): as the sequence (Q02750 whole entry, looked up) above
# Mus musculus [15] = test: Average drug concentration in human LOX cells expressing B-Raf V600E mutant xenografted nude mouse plasma at 6.25 mg/kg, po bid; format: ADME, organism-based; parameters: dose 6.25 mg/kg, route oral; conditions: in vivo
# [16] = Cmax in human MIAPaCa2 cells expressing K-Ras G12C mutant xenografted nude mouse at 200 mg/kg, po qd; format: ADME, organism-based, MIA PaCa-2; parameters: dose 200 mg/kg, route oral; conditions: in vivo
# [17] = Drug level in human LOX cells expressing B-Raf V600E mutant xenografted nude mouse tumor at 100 mg/kg, po after 1 hr; format: ADME, organism-based, Neoplasm; parameters: dose 100 mg/kg, route oral; conditions: read-out: Drug uptake
# [18] = Cmax in human LOX cells expressing B-Raf V600E mutant xenografted nude mouse at 12.5 mg/kg, po bid; format: ADME, organism-based; parameters: dose 12.5 mg/kg, route oral; conditions: in vivo
# Mus musculus [19] = test: Toxicity in human LOX cells expressing B-Raf V600E mutant xenografted nude mouse assessed as gross signs of adverse effect at 500 mg/kg, po administered weekly once for 3 weeks; format: organism-based; parameters: dose 500 mg/kg, route oral; conditions: in vivo, 504 h
# HT-29 [20] = test: Antitumor activity against human HT-29 cells expressing B-Raf V600E mutant xenografted in nude mouse assessed as tumor growth inhibition at 25 mg/kg, po bid; format: functional; conditions: read-out: GI
# [21] = Plasma concentration in human HT-29 cells expressing B-Raf V600E mutant xenografted nude mouse at 100 mg/kg, po after 2 hrs; format: ADME, organism-based; parameters: dose 100 mg/kg, route oral
# Mus musculus [22] = test: Toxicity in human MIAPaCa2 cells expressing K-Ras G12C mutant xenografted nude mouse assessed as gross signs of adverse effect at 500 mg/kg, po administered weekly once for 3 weeks; format: organism-based, MIA PaCa-2; parameters: dose 500 mg/kg, route oral; conditions: in vivo, 504 h
# NCI-H460 [23] = test: Antitumor activity against human H460 cells expressing K-Ras Q61H mutant xenografted in nude mouse assessed as tumor growth inhibition at 500 mg/kg, po administered weekly once; format: functional; conditions: read-out: GI
# [24] = AUC (0 to 12 hrs) in human MIAPaCa2 cells expressing K-Ras G12C mutant xenografted nude mouse at 25 mg/kg, po bid; format: ADME, organism-based, MIA PaCa-2; parameters: time < 12 hr, dose 25 mg/kg, route oral; conditions: in vivo
# Cynomolgus monkey = test: Inhibition of MEK in po dosed cynomolgus monkey peripheral blood mononuclear cells assessed as inhibition of PMA-stimulated ERK phosphorylation after 1 to 24 hrs by flow cytometry; format: functional, organism-based; conditions: Macaca fascicularis
# [25] = Drug level in human HT-29 cells expressing B-Raf V600E mutant xenografted nude mouse tumor at 100 mg/kg, po after 8 hrs; format: ADME, organism-based, Neoplasm; parameters: dose 100 mg/kg, route oral; conditions: read-out: Drug uptake
# Mus musculus [26] = test: Toxicity in human HT-29 cells expressing B-Raf V600E mutant xenografted nude mouse assessed as gross signs of adverse effect at 500 mg/kg, po administered weekly once for 3 weeks; format: organism-based; parameters: dose 500 mg/kg, route oral; conditions: in vivo, 504 h
# [27] = Antitumor activity against human LOX cells expressing B-Raf V600E mutant xenografted in nude mouse assessed as tumor growth inhibition at 500 mg/kg, po administered weekly once; format: functional; conditions: read-out: GI
# [28] = Cmax in human MIAPaCa2 cells expressing K-Ras G12C mutant xenografted nude mouse at 50 mg/kg, po bid; format: ADME, organism-based, MIA PaCa-2; parameters: dose 50 mg/kg, route oral; conditions: in vivo
# [29] = Cell cycle arrest in human LOX cells assessed as accumulation at G1 phase; format: functional, cell-based
# [30] = target: T1, Dual specificity mitogen-activated protein kinase kinase 1; test: Inhibition of MEK1 in human HT-29 cells assessed as inhibition of ERK phosphorylation by Western blot analysis; format: cell-based
# NCI-H460 [31] = test: Antitumor activity against human H460 cells expressing K-Ras Q61H mutant xenografted in nude mouse assessed as tumor growth inhibition at 100 mg/kg, po bid; format: functional; conditions: read-out: GI
# [32] = Drug level in human LOX cells expressing B-Raf V600E mutant xenografted nude mouse tumor at 100 mg/kg, po after 12 hrs; format: ADME, organism-based, Neoplasm; parameters: dose 100 mg/kg, route oral; conditions: read-out: Drug uptake
# [33] = AUC (0 to 12 hrs) in human HT-29 cells expressing B-Raf V600E mutant xenografted nude mouse at 25 mg/kg, po bid; format: ADME, organism-based; parameters: time < 12 hr, dose 25 mg/kg, route oral; conditions: in vivo
# [34] = Plasma concentration in human LOX cells expressing B-Raf V600E mutant xenografted nude mouse at 100 mg/kg, po after 8 hrs; format: ADME, organism-based; parameters: dose 100 mg/kg, route oral
# Mus musculus [35] = test: Average drug concentration in human HT-29 cells expressing B-Raf V600E mutant xenografted nude mouse plasma at 25 mg/kg, po bid; format: ADME, organism-based; parameters: dose 25 mg/kg, route oral; conditions: in vivo
# [36] = AUC (0 to 12 hrs) in human HT-29 cells expressing B-Raf V600E mutant xenografted nude mouse at 50 mg/kg, po bid; format: ADME, organism-based; parameters: time < 12 hr, dose 50 mg/kg, route oral; conditions: in vivo
# Mus musculus [37] = test: Average drug concentration in human LOX cells expressing B-Raf V600E mutant xenografted nude mouse plasma at 25 mg/kg, po bid; format: ADME, organism-based; parameters: dose 25 mg/kg, route oral; conditions: in vivo
# [38] = Plasma concentration in human HT-29 cells expressing B-Raf V600E mutant xenografted nude mouse at 50 mg/kg, po after 4 hrs; format: ADME, organism-based; parameters: dose 50 mg/kg, route oral
# Mus musculus [39] = test: Inhibition of MEK-mediated ERK phosphorylation in tumor of human HT-29 cells expressing B-Raf V600E mutant xenografted nude mouse at 100 mg/kg, po after 2 hrs by Western blot analysis relative to control; format: functional; conditions: HT-29, 2 h
# Mus musculus [40] = test: Inhibition of MEK-mediated ERK phosphorylation in po dosed human LOX cells expressing B-Raf V600E mutant xenografted nude mouse tumor by Western blot analysis; format: functional, organism-based
smiles,measurement,setting,value
C[C@@H](c1ccccc1)[C@@H](C(=O)Nc1ccc(I)cc1F)N1C(=O)N[C@H](c2ccc(OC[C@H](O)CO)cc2)C1=O,Cave,Mus musculus [1],2758 ng/mL
same,Cave,Mus musculus [2],388 ng/mL
same,concentration at 12 h,[3],321 ng/g
same,Cave,Mus musculus [4],1530 ng/mL
same,Cmax,[5],9650 ng/mL
same,Cave,Mus musculus [6],733 ng/mL
same,Activity,LOX,Active
same,Activity,HT-29 [7],Active
same,Cmax,[8],3960 ng/mL
same,concentration at 2 h,[9],2090 ng/g
same,AUC at 12 h,[10],23300 ng·h/mL
same,Cave,Mus musculus [11],1058 ng/mL
same,inhibition,[12],Active
same,concentration at 12 h,[13],188 ng/g
same,IC50,[14],25 nM
same,Cave,Mus musculus [15],331 ng/mL
same,Cmax,[16],15500 ng/mL
same,concentration at 1 h,[17],1030 ng/g
same,Cmax,[18],1170 ng/mL
same,Activity,Mus musculus [19],Non-toxic
same,inhibition in vivo at 25 mg/kg,HT-29 [20],65%
same,concentration at 2 h,[21],9360 ng/mL
same,Activity,Mus musculus [22],Non-toxic
same,inhibition in vivo at 500 mg/kg,NCI-H460 [23],48%
same,AUC at 12 h,[24],12700 ng·h/mL
same,EC50,Cynomolgus monkey,1410 nM
same,concentration at 8 h,[25],293 ng/g
same,Activity,Mus musculus [26],Non-toxic
same,inhibition in vivo at 500 mg/kg,[27],> 100%
same,Cmax,[28],5240 ng/mL
same,Activity,[29],Active
same,IC50,[30],12 nM
same,inhibition in vivo at 100 mg/kg,NCI-H460 [31],90%
same,concentration at 12 h,[32],318 ng/g
same,AUC at 12 h,[33],3780 ng·h/mL
same,concentration at 8 h,[34],1410 ng/mL
same,Cave,Mus musculus [35],315 ng/mL
same,AUC at 12 h,[36],7310 ng·h/mL
same,Cave,Mus musculus [37],833 ng/mL
same,concentration at 4 h,[38],4030 ng/mL
same,inhibition in vivo at 100 mg/kg,Mus musculus [39],76%
same,EC50,Mus musculus [40],928 ng/g
